Source: patent publication US11229205B2, “Herbicidally active pyridyl-/pyrimidyl-pyrazine derivatives” (Syngenta Participations AG, priority 2017, dated 2022)

Columns and labels:
Format in all cases: in vivo
Lolium perenne (LOLPE) [1] = assay: Post-emergence herbicidal activity (B2); conditions: Test B2b; post-emergence application; rate 1000 g/ha; evaluated after 13 days; score 0-5
Procedure: (§1) Seeds of a variety of test species were sown in standard soil in pots: Triticum aestivium (TRZAW), Avena fatua (AVEFA), Alopecurus myosuroides (ALOMY), Echinochloa crus-galli (ECHCG), Lolium perenne (LOLPE), Zea Mays (ZEAMX), Abutilon theophrasti (ABUTH), Amaranthus retroflexus (AMARE) and Setaria faberi (SETFA). […] The test plants were then grown in a glasshouse under controlled conditions (at 24/16° C., day/night; 14 hours light; 65% humidity) and watered twice daily. After 13 days, the test was evaluated (5=total damage to plant; 0=no damage to plant).

[2] = test system: Triticum aestivium (TRZAW); assay: Post-emergence herbicidal activity (B2); conditions: Test B2b; post-emergence application; rate 1000 g/ha; evaluated after 13 days; score 0-5
Procedure: as §1

Avena fatua (AVEFA) [3] = assay: Post-emergence herbicidal activity (B2); conditions: Test B2b; post-emergence application; rate 1000 g/ha; evaluated after 13 days; score 0-5
Procedure: as §1

Setaria faberi (SETFA) [4] = assay: Post-emergence herbicidal activity (B2); conditions: Test B2b; post-emergence application; rate 1000 g/ha; evaluated after 13 days; score 0-5
Procedure: as §1

[5] = test system: Echinochloa crus-galli (ECHCG); assay: Post-emergence herbicidal activity (B2); conditions: Test B2b; post-emergence application; rate 1000 g/ha; evaluated after 13 days; score 0-5
Procedure: as §1

[6] = test system: Alopecurus myosuroides (ALOMY); assay: Post-emergence herbicidal activity (B2); conditions: Test B2b; post-emergence application; rate 1000 g/ha; evaluated after 13 days; score 0-5
Procedure: as §1

Lolium perenne (LOLPE) [7] = assay: Pre-emergence herbicidal activity (B1); conditions: Test 1b; pre-emergence application; rate 1000 g/ha; evaluated after 13 days; score 0-5
Procedure: as §1

[8] = test system: Triticum aestivium (TRZAW); assay: Pre-emergence herbicidal activity (B1); conditions: Test 1b; pre-emergence application; rate 1000 g/ha; evaluated after 13 days; score 0-5
Procedure: as §1

Avena fatua (AVEFA) [9] = assay: Pre-emergence herbicidal activity (B1); conditions: Test 1b; pre-emergence application; rate 1000 g/ha; evaluated after 13 days; score 0-5
Procedure: as §1

Setaria faberi (SETFA) [10] = assay: Pre-emergence herbicidal activity (B1); conditions: Test 1b; pre-emergence application; rate 1000 g/ha; evaluated after 13 days; score 0-5
Procedure: as §1

[11] = test system: Echinochloa crus-galli (ECHCG); assay: Pre-emergence herbicidal activity (B1); conditions: Test 1b; pre-emergence application; rate 1000 g/ha; evaluated after 13 days; score 0-5
Procedure: as §1

[12] = test system: Alopecurus myosuroides (ALOMY); assay: Pre-emergence herbicidal activity (B1); conditions: Test 1b; pre-emergence application; rate 1000 g/ha; evaluated after 13 days; score 0-5
Procedure: as §1

| Compound | damage to plant, LOLPE (Lolium perenne (LOLPE) [1]) | damage to plant, TRAZW [2] | damage to plant, AVEFA (Avena fatua (AVEFA) [3]) | damage to plant, SETFA (Setaria faberi (SETFA) [4]) | damage to plant, ECHCG [5] | damage to plant, ALOMY [6] | damage to plant, LOLPE (Lolium perenne (LOLPE) [7]) | damage to plant, TRAZW [8] | damage to plant, AVEFA (Avena fatua (AVEFA) [9]) | damage to plant, SETFA (Setaria faberi (SETFA) [10]) | damage to plant, ECHCG [11] | damage to plant, ALOMY [12] |
| --- | --- | --- | --- | --- | --- | --- | --- | --- | --- | --- | --- | --- |
| CCOC(=O)c1nc(-c2cncnc2)cnc1N [Compound G2] | 1 | 0 | 1 | 3 | 1 | 1 | 0 | 0 | 0 | 2 | 0 | 0 |
| Nc1ncc(-c2cncc(F)c2)nc1C(F)(F)F [Compound G3, 2-amino-3-trifluoromethyl-5-(5-fluoropyrid-3-yl) pyrazine] | 2 | 0 | 3 | 3 | 4 | 0 | 0 | 1 | 1 | 4 | 3 | 1 |
| Cc1nc(-c2cncc(F)c2)cnc1N [Compound G4] | 0 | 0 | 1 | 3 | 2 | 0 | 0 | 0 | 1 | 1 | 1 | 0 |
| COc1nc(-c2cncc(F)c2)cnc1N [Compound G5] | 0 | 0 | 1 | 3 | 2 | 1 | 0 | 0 | 0 | 1 | 1 | 0 |
| Nc1ncc(-c2cncnc2)nc1C(F)(F)F [Compound G6] | 1 | 0 | 1 | 3 | 3 | 0 | 0 | 0 | 1 | 2 | 1 | 0 |
| N#Cc1nc(-c2cncc(F)c2)cnc1N [Compound G7] | 0 | 0 | 1 | 2 | 3 | 0 | 0 | 0 | 0 | 1 | 1 | 0 |
| Nc1ncc(-c2cncc(F)c2)nc1Br [Compound G8, 2-amino-3-bromo-5-(5-fluoropyrid-3-yl)pyrazine] | 0 | 0 | 0 | 1 | 2 | 0 | 0 | 0 | 0 | 0 | 0 | 0 |
| Nc1ncc(-c2cncnc2)nc1OCc1ccccc1 [Compound G10] | 0 | 0 | 0 | 1 | 1 | 0 | 0 | 0 | 0 | 0 | 0 | 0 |
| Nc1ncc(-c2cncc(F)c2)nc1OCc1ccccc1 [Compound G11] | 0 | 0 | 1 | 1 | 1 | 0 | 0 | 0 | 0 | 0 | 0 | 0 |
| OCNc1ncc(-c2cncc(F)c2)nc1C(F)(F)F [Compound G12, 2-hydroxymethylamino-3-trifluoromethyl-5-(5-fluoropyrid-3-yl)pyrazine] | 0 | 0 | 5 | 3 | 2 | 0 | 0 | 0 | 1 | 5 | 3 | 0 |
| Cc1nc(-c2cncc(F)c2)cnc1N(C)C [Compound G13, 2-dimethylamino-3-methyl-5-(5-fluoropyrid-3-yl)pyrazine] | 0 | 0 | 1 | 3 | 1 | 0 | 0 | 0 | 0 | 1 | 0 | 0 |
| C=C(C)c1nc(-c2cncc(F)c2)cnc1N [Compound G14, 5-(5-fluoro-3-pyridyl)-3-isopropenyl-pyrazin-2-amine] | 1 | 0 | 1 | 4 | 1 | 0 | 0 | 0 | 0 | 2 | 1 | 0 |
| CC(C)c1nc(-c2cncc(F)c2)cnc1N [Compound G15, 2-amino-3-(prop-2-yl)-5-(5-fluoropyrid-3-yl)pyrazine] | 0 | 0 | 0 | 4 | 1 | 0 | 2 | 0 | 0 | 0 | 0 | 0 |
| CNc1ncc(-c2cncc(F)c2)nc1C [Compound G17, 2-methylamino-3-methyl-5-(5-fluoropyrid-3-yl)pyrazine] | 0 | 0 | 0 | 1 | 1 | 0 | 0 | 0 | 0 | 0 | 0 | 0 |
| C=Cc1nc(-c2cncc(F)c2)cnc1N [Compound G18] | 0 | 0 | 1 | 1 | 1 | 0 | 0 | 0 | 0 | 0 | 0 | 0 |
| CCc1nc(-c2cncc(F)c2)cnc1N [Compound G19] | 0 | 0 | 1 | 3 | 2 | 0 | 1 | 0 | 0 | 4 | 1 | 0 |
| C[Si](C)(C)C#Cc1nc(-c2cncc(F)c2)cnc1N [Compound G20] | 0 | 1 | 1 | 0 | 0 | 0 | 0 | 0 | 0 | 0 | 0 | 0 |
| CCCNc1ncc(-c2cncc(F)c2)nc1C(F)(F)F [Compound G23] | 1 | 0 | 1 | 4 | 4 | 0 | 1 | 0 | 0 | 3 | 2 | 1 |
